Experimental data taken from patent US5914237A, “Kinase receptor activation assay” (Genentech Incorporated, priority 1995, dated 1999).
Where two headings read alike, the source gives them in different places. One block for each molecule: values may come before it.

Assays:
trkA.IgG = test: Competitive displacement binding with iodinated NGF to trkA.IgG; set-up: species or system human
Protocol: (§1) The media mentioned above (having the gD.trk.IgG) was used without further purification in binding assays to assess the effects of the presence of the gD flag polypeptide on neurotrophin binding to the gD.trk.IgG polypeptides. DNA encoding untagged trk.IgG polypeptide was run in parallel as a control. trk.IgG and gD tagged trk.IgG containing cell supernatants were prepared as described and used in competitive displacement assays with the appropriate iodinated neurotrophin. NGF is used as ligand for trkA, NT5 is used as ligand for trkB, and NT3 is used as a ligand for trkC.

[1] = test system: p185^HER2 (HER2 receptor); test: p185HER2 KIRA ELISA (receptor autophosphorylation in MCF-7 cells); type: cell-based, human; conditions: for receptor stimulation and autophosphorylation (assay specificity, FIG. 8): HRG up to 3000 pM, other ligands up to 30000 pM
Protocol: MCF-7 cells (2×10^5) in 100 μl media were added to each well in a flat-bottom-96 well culture plate and cultured overnight at 37° C. in 5% CO2. The following morning the well supernatants were decanted, and the plates were lightly tamped on a paper towel. 50 μl of media containing either experimental samples or the recombinant HRGβ1177-244 standards (3000, 1000, 333, 111, 37, 12, 4, and 0 pM) was then added to each well. The cells were stimulated at 37° C. for 30 min., the well supernatants were decanted, and the plates were once again lightly tamped on a paper towel. To lyse the cells and solubilize the receptors, 100 μl of lysis buffer was added to each well. Lysis buffer consisted of 150 mM NaCl containing 50 mM HEPES (Gibco), 0.5% Triton-X 100 (Gibco), 0.01% thimerosal, 30 KIU/ml aprotinin (ICN Biochemicals, Aurora, Ohio), 1 mM 4-(2-aminoethyl)-benzenesulfonyl fluoride hydrochloride (AEBSF; ICN Biochemicals), 50 μM leupeptin (ICN Biochemicals), and 2 mM sodium orthovanadate (Na3 VO4, Sigma Chemical Co, St. Louis, Mo.), pH 7.5. The plate was then agitated gently on a plate shaker (Bellco Instruments, Vineland, N.J.) for 60 min. at room temperature.
While the cells were being solubilized, an ELISA microtiter plate (Nunc Maxisorp, Inter Med, Denmark) coated overnight at 4° C. with the affinity-purified polyclonal anti-HER2 ECD (1.0 μg/ml in 50 mM carbonate buffer, pH 9.6, 100 μl/well) was decanted, tamped on a paper towel and blocked with 150 μl/well of Block Buffer [PBS containing 0.5% BSA (Intergen Company, Purchase, N.Y.) and 0.01% thimerosal] for 60 min. at room temperature with gentle agitation. After 60 minutes, the anti-HER2 ECD coated plate was washed 6 times with wash buffer (PBS containing 0.05% Tween-20 and 0.01% thimerosal) using an automated plate washer (ScanWasher 300, Skatron Instruments, Inc, Sterling, Va.).
The lysate containing solubilized p185^HER2 from the cell-culture microtiter well was transferred (85 μl/well) to anti-rHER2 ECD coated and blocked ELISA well and was incubated for 2 h at room temperature with gentle agitation. […] The absorbance at 450 nm was read with a reference wavelength of 650 nm (ABS450/650), using a vmax plate reader (Molecular Devices, Palo Alto, Calif.) controlled with a Macintosh Centris 650 (Apple Computers, Cupertino, Calif.) and DeltaSoft software (BioMetallics, Inc, Princeton, N.J.).
The standard curve shown in FIG. 7 was generated by stimulating MCF-7 cells with 3000, 1000, 333, 111, 37, 12, 4, or 0 pM HRGβ1177-244 and presented as pM HRGβ1177-244 vs. mean ABS450/650 ±sd using the DeltaSoft program. Sample concentrations were obtained by interpolation of their absorbance on the standard curve and are expressed in terms of pM HRGβ1177-244 activity.

trkC.IgG = test: Competitive displacement binding with iodinated NT3 to trkC.IgG; set-up: species or system human
Protocol: as §1

trkB.IgG = test: Competitive displacement binding with iodinated NT5 to trkB.IgG; set-up: species or system human
Protocol: as §1

IC50 (trkA.IgG; gD tagged trkA.IgG, read-out: IC50 with gD): 0.0688 ± 0.003 nM | IC50 (trkA.IgG; trkA.IgG, untagged, read-out: IC50 without gD): 0.0684 ± 0.0119 nM
Molecule: NGF: nerve growth factor prepared by recombinant techniques; ligand for trkA

Molecule: IGF-1: insulin-like growth factor-1
receptor stimulation and autophosphorylation (assay specificity, FIG. 8) [1]: Neither insulin-like growth factor-1 (IGF-1), vascular endothelial growth factor (VEGF) nor insulin have any detectable effect

Molecule: insulin: insulin
receptor stimulation and autophosphorylation (assay specificity, FIG. 8) [1]: Neither insulin-like growth factor-1 (IGF-1), vascular endothelial growth factor (VEGF) nor insulin have any detectable effect

Molecule: EGF: epidermal growth factor
OD450/650 ([1]; highest concentration tested (100 nM)): 0.239

Molecule: VEGF
receptor stimulation and autophosphorylation (assay specificity, FIG. 8) [1]: Neither insulin-like growth factor-1 (IGF-1), vascular endothelial growth factor (VEGF) nor insulin have any detectable effect

IC50 (trkC.IgG; gD tagged trkC.IgG, read-out: IC50 with gD): 0.0302 ± 0.0007 nM | IC50 (trkC.IgG; trkC.IgG, untagged, read-out: IC50 without gD): 0.0311 ± 0.0011 nM
Molecule: NT3: neurotrophin 3 prepared by recombinant techniques; ligand for trkC

IC50 (trkB.IgG; gD tagged trkB.IgG, read-out: IC50 with gD): 0.0121 ± 0.018 nM | IC50 (trkB.IgG; trkB.IgG, untagged, read-out: IC50 without gD): 0.0311 ± 0.0156 nM
B1: NT5: neurotrophin 5 prepared by recombinant techniques; ligand for trkB (protein, UniProt P34130 81-210, looked up)
Neurotrophin-4: GVSETAPASRRGELAVCDAVSGWVTDRRTAVDLRGREVEVLGEVPAAGGSPLRQYFFETRCKADNAEEGGPGAGGGGCRGVDRRHWVSECKAKQSYVRALTADAQGRVGWRWIRIDTACVCTLLSRTGRA
